According to paper PMC5128750, “Structure–Activity Relationship Studies Using Natural and Synthetic Okadaic Acid/Dinophysistoxin Toxins” (Marine Drugs, 2016):
Several values for one entry are separate records, joined by “and”; a condition that tells them apart may be missing. Identical values can stand only once. Like-named read-outs stand apart in the source and are kept apart here.

Legend:
PP2a [1] = conditions: relative to OA, using data from Aune et al. and Takai et al.; cited from earlier work
PP5 [2] = target: T1, PP5 (Homo sapiens, UniProt P53041); format: biochemical; parameters: purchased EMD Millipore Corporation (PhosphataseProfiler service); conditions: 200 nM, n = 2
T1 sequence (P53041 1-499): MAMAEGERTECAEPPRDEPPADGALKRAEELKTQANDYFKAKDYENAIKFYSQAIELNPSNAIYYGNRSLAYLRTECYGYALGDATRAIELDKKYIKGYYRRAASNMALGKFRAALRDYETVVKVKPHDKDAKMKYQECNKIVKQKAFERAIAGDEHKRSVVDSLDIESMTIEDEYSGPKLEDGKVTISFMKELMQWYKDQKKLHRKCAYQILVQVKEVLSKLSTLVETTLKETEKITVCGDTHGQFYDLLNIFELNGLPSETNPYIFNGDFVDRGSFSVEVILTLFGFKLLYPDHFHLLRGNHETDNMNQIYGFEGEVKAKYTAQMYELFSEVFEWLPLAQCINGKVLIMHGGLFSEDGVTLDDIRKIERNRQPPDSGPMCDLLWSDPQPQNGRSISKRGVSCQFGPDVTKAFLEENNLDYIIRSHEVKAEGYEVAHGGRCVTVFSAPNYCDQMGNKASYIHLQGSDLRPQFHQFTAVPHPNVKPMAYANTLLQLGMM

[3] = tested on: Jurkat T lymphocyte cells; assay: cells; format: cell-based, human
PP2A [4] = target: T2, PP2A (Homo sapiens, UniProt P67775); assay: biochemical; format: biochemical
T2 construct: purified PP2A (EMD Millipore Corporation, Darmstadt, Germany, cat. #14-111; human red blood cells); purchased EMD Millipore Corporation 14-111; host or cells: human red blood cells (tissue-purified)

PP2A [5] = target: T2, PP2A; format: biochemical; conditions: 200 nM, n = 2
PP5 [6] = target: T1, PP5; assay: PP5 inhibition, fluorimetric DiFMUP assay; format: biochemical; parameters: purchased EMD Millipore Corporation 14-778; host or cells: E. coli; conditions: for IC50: PP5, DiFMUP 50 μM; for Rel. Potency / TEF: PP5, relative to OA
Method: Figure 3 Effect of various DSP toxins on protein phosphatase activity. The activities of protein phosphatases (A) PP2a, (B) PP1, and (C) PP5 were assessed in the presence of various concentrations of natural OA, natural DTX1, natural DTX2, synthetic DTX2, or synthetic 2-epi-DTX2. All data (mean ± SE; n = 3 or 4) were normalized to the control. […], variable slope, non-linear dose-response analysis was performed and IC50 and 95% confidence interval values were calculated (Table 2).
Preliminary studies were conducted by Millipore (EMD Millipore Corporation, Darmstadt, Germany) using their PhosphataseProfiler that assessed the activities of 21 human and yeast phosphatases in the presence of DTX2. Phosphatase sensitivities to DTX2 were more extensively characterized using 96-well fluorescence-based assays in the presence of various natural and synthetic OA/DTXs. Briefly, the assay tests the ability of toxins to inhibit the activity of purified PP2A (EMD Millipore Corporation, Darmstadt, Germany, cat. #14-111; human red blood cells), purified PP1 (EMD Millipore Corporation, Darmstadt, Germany, cat. #14-110; rabbit skeletal muscle), or purified PP5 (EMD Millipore Corporation, Darmstadt, Germany, cat. #14-778; recombinant enzyme expressed in E. coli cells) against the fluorimetric substrate, 6,8-difluro-4-methyl umbelliferyl phosphate (DiFMUP; 50 μM final) (Invitrogen ThermoFisher Scientific, Waltham, MA, USA, cat. #D6567). DiFMUP solutions were preincubated with toxins or vehicle controls (all containing 1% DMSO final) for 10 min prior to addition of one of the PP enzymes (0.4, 0.4, and 0.02 units/well for PP2a, PP1, and PP5). PP2a assays were performed in Tris-HCl (40 mM, pH 8.4), MgCl2 (34 mM), EDTA (4 mM), and DTT (4 mM), PP1 assays were performed in Tris-HCl (100 mM, pH 7.5), MnCl2 (0.5 mM), EDTA (0.2 mM), DTT (4 mM) and BSA (0.4 mg/mL), and PP5 assays were performed in HEPES (57 mM, pH 7.2), NaCl (150 mM), EDTA (1 mM), MnCl2 (1 mM), DTT (0.167 mM), glycerol (0.83%), BSA (0.167 mg/mL), Brij-35 (0.002%) (EMD Millipore Corporation, Darmstadt, Germany, pers. comm.). All reactions (50 μL) were performed in black, 96-well, half area plates (Corning Incorporated, Corning, NY, USA) for 2 h at 35 °C with 5 s orbital shaking (ca. 600 rpm) just prior to each reading (every 2 min). PP activity was determined by measuring the fluorescence (excitation 360 nm, emission 470 nm) of each well using a fluorometric plate reader (Fluostar, BMG Lab Technologies, Ortenberg, Germany). All data (mean ± SE, n ≥ 3) are presented as normalized percentages relative to vehicle controls (100%). IC50 determinations were calculated using four-parameter, variable slope, non-linear regression analysis (GraphPad Prism, ver. 5.0c, San Diego, CA, USA).

[7] = tested on: CD45, DUSP22, HePTP, LMPTP-A, LMPTP-B, MKP5, PTPMEG1, PTP-MEG2, PTP-1B, PTPN22, PTPβ, RPTPμ, SHP-1, SHP-2, TCPTP, TMDP, VHR, YopH; format: biochemical, human and yeast; conditions: 200 nM, n = 2
PP1 = format: biochemical, rabbit
PP1α = target: T3, PP1α (Homo sapiens, UniProt P62136); format: biochemical; conditions: 200 nM, n = 2
T3 construct: purchased EMD Millipore Corporation (PhosphataseProfiler service)

mice = conditions: relative to OA, cited from earlier work; for TEF (European Food Safety Authority): based on LD50 values from exposed mice

T2 sequence (P30153 2-589): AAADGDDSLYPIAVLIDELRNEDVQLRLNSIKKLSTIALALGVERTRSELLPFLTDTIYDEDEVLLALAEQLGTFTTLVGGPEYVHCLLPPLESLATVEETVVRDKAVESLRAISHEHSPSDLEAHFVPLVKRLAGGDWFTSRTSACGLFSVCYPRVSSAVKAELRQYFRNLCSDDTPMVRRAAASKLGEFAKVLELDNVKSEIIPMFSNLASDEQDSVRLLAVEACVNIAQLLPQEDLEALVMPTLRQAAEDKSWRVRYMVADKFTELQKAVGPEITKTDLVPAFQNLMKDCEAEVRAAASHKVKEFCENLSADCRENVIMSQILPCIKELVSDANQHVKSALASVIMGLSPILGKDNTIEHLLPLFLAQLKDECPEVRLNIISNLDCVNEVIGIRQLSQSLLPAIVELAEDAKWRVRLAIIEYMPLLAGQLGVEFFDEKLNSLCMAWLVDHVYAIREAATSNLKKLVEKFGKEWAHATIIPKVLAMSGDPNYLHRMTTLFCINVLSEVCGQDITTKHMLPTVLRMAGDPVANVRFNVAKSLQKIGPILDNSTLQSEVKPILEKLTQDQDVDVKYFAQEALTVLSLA
T2 sequence (P67775 whole entry): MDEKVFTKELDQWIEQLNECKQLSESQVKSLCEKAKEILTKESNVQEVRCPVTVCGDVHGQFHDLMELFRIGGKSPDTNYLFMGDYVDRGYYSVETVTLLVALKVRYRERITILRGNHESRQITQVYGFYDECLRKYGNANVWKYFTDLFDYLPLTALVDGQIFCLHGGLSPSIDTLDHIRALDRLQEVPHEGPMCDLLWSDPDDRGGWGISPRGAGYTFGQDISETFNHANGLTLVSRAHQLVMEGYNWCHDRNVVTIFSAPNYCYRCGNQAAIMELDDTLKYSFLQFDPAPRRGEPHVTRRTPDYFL
T3 sequence (P62136 whole entry): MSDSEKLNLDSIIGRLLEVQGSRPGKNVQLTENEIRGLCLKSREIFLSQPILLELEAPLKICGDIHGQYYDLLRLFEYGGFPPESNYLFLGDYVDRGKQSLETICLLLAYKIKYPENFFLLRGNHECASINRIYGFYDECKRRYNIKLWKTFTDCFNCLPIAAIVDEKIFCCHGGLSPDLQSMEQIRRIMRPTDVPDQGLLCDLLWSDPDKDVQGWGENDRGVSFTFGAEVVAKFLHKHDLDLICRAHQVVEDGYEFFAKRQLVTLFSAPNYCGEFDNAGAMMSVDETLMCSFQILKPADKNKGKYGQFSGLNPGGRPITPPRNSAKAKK

SMILES | TEF by Huhn et al. (PP2a [1]) | Inhibition of phosphatase activity (PP5 [2]) | Rel. Potency (as per 48 h Data) / TEF [3] | IC50 (PP2A [4]) | Rel. Potency / TEF (PP2A [4]) | Inhibition of phosphatase activity (PP2A [5]) | IC50 (PP5 [6]) | Rel. Potency / TEF (PP5 [6]) | Inhibition of phosphatase activity [7] | IC50 (PP1) [nM] | Rel. Potency / TEF (PP1) | Inhibition of phosphatase activity (PP1α) | TEF (European Food Safety Authority) (mice) | TEF proposed by Aune et al. (mice) | EC50 ([3]; Homo sapiens, Jurkat, 24 h) [nM] | EC50 ([3]; Homo sapiens, Jurkat, 48 h) [nM] | EC50 ([3]; Homo sapiens, Jurkat, 72 h) [nM] | IC50 (PP2A [4]; IC50) | EC50 [3]
C=C1C(O)C2OC3(CCC(C=CC(C)C4CC(C)=CC5(OC(CC(C)(O)C(=O)O)CCC5O)O4)O3)CCC2OC1C(O)CC(C)C1CCCC2(OCCCC2C)O1 (centres unmarked) [nat. DTX2, Dinophysistoxin-2] | 0.48 | inhibited | 1.6 and 1.58 | 0.99 nM and 0.987 nM | 0.472 | inhibited | 5.2 nM and 5.25 nM | 0.438 | only PP1α, PP2a, and PP5 were inhibited | 76.4 | 0.330 | inhibited | 0.6 | 0.6 |  |  |  |  | 
C=C1[C@@H](O)[C@@H]2O[C@]3(CC[C@H](/C=C/[C@@H](C)[C@@H]4CC(C)=C[C@@]5(O[C@H](C[C@@](C)(O)C(=O)O)CC[C@H]5O)O4)O3)CC[C@H]2O[C@@H]1[C@@H](O)C[C@H](C)[C@H]1O[C@@]2(CCCCO2)CC[C@H]1C [nat. OA, Okadaic Acid] |  |  | 1.000 |  | 1.000 |  | 2.3 nM | 1.000 |  | 25.2 | 1.000 |  | 1 |  | 32.8 | 19.5 | 9.16 | 0.47 nM and 0.466 nM | 
C=C1C(O)C2OC3(CCC(C=CC(C)C4CC(C)=CC5(OC(CC(C)(O)C(=O)O)CCC5O)O4)O3)CCC2OC1C(O)CC(C)C1CCCC2(OCCCC2C)O1 (stereo not drawn) [syn. 2-epi-DTX2, 2-epi-dinophysistoxin-2] |  |  | 0.004 | 137 nM | 0.003 |  | 541 nM | 0.004 |  | 3110 | 0.008 |  |  |  |  |  |  |  | 4750 nM and 4260 nM and 3740 nM
C=C1C(O)C2OC3(CCC(C=CC(C)C4CC(C)=CC5(OC(CC(C)(O)C(=O)O)CCC5O)O4)O3)CCC2OC1C(O)CC(C)C1OC2(CCC1C)OCCCC2C (centres unmarked) [nat. DTX1, Dinophysistoxin-1] | 1.58 |  | 0.9 and 0.87 | 0.31 nM and 0.306 nM | 1.5 and 1.523 |  | 1.3 nM | 1.8 and 1.769 |  | 34.8 | 0.72 and 0.724 |  | 1 |  | 24.6 | 22.2 | 11.4 |  | 
C=C1C(O)C2OC3(CCC(C=CC(C)C4CC(C)=CC5(OC(CC(C)(O)C(=O)O)CCC5O)O4)O3)CCC2OC1C(O)CC(C)C1CCCC2(OCCCC2C)O1 (stereo not drawn) [syn. DTX2, Dinophysistoxin-2] |  |  | 1.1 and 1.07 | 1.35 nM | 0.345 |  | 4 nM and 3.95 nM | 0.582 |  | 82.6 | 0.305 |  |  |  |  |  |  |  | 21.8 nM and 18.2 nM and 15.4 nM
